Test results from ChEMBL document CHEMBL1641408, “Two dimeric lignans with an unusual α,β-unsaturated ketone motif from Zanthoxylum podocarpum and their inhibitory effects on nitric oxide production” (Bioorg Med Chem Lett, 2011).

Test system: RAW264.7
Experiment: Antiinflammatory activity in mouse RAW264.7 cells assessed as inhibition of LPS-induced nitric oxide production after 18 hrs by Griess reagent method
Assay type: functional, cell-based
Conditions: RAW264.7, 18 h

Row | IC50 [µM] | SMILES
1 | 12.2 | COc1cc([C@@H]2OC[C@@H]3[C@H]2CO[C@@H]3c2ccc(OC34OCOC3=CC(=O)[C@@H]([C@@H]3OC[C@H]5[C@@H]3CO[C@H]5c3ccc(OC)c(OC)c3)[C@@H]4O)c(OC)c2)ccc1O (some centres not stated) [ZANTHPODOCARPIN B]
2 | 5.31 | COc1ccc([C@@H]2OC[C@@H]3[C@H]2CO[C@H]3[C@@H]2C(=O)C=C3OCOC3(Oc3ccc([C@H]4OC[C@@H]5[C@H]4CO[C@H]5c4ccc5c(c4)OCO5)cc3OC)[C@H]2O)cc1OC (some centres not stated) [ZANTHPODOCARPINS A]
